These results are taken from patent publication US9676714B2, “Sulfonylindole derivatives and method for preparing the same” (Daewoong Pharmaceutical Co., Ltd., priority 2013, dated 2017).

Counter-ions that a name gives are not always drawn.

This assay deals with T1, proton pump (H+/K+-ATPase) (Sus scrofa, UniProt P19156).
T1 construct: Gastric vesicles were prepared from hog stomach via centrifugal separation; from tissue; host or cells: hog stomach (gastric vesicles, method of Rabon et al. 1988)
The assay is described as follows: Measurement of inhibitory effects on proton pump (H+/K+-ATPase) activities. The following applies: hog gastric vesicles, K+-specific H+/K+-ATPase activity, Tris-HCl buffer pH 7.4, 37° C. for 40 minutes, malachite green Pi readout. It counts as biochemical. The method, boiled down:
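Hog gastric vesicles in 60 mmol/l Tris-HCl pH 7.4 with 0.5% DMSO were treated with compounds at room temperature; reaction was started with 10 μl of 10 mmol/l ATP stock. Released Pi was read at 570 nm, K+-specific activity taken as the ±K+ difference. IC50 from 4-parameter logistic fit.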

T1 sequence (P19156 whole entry): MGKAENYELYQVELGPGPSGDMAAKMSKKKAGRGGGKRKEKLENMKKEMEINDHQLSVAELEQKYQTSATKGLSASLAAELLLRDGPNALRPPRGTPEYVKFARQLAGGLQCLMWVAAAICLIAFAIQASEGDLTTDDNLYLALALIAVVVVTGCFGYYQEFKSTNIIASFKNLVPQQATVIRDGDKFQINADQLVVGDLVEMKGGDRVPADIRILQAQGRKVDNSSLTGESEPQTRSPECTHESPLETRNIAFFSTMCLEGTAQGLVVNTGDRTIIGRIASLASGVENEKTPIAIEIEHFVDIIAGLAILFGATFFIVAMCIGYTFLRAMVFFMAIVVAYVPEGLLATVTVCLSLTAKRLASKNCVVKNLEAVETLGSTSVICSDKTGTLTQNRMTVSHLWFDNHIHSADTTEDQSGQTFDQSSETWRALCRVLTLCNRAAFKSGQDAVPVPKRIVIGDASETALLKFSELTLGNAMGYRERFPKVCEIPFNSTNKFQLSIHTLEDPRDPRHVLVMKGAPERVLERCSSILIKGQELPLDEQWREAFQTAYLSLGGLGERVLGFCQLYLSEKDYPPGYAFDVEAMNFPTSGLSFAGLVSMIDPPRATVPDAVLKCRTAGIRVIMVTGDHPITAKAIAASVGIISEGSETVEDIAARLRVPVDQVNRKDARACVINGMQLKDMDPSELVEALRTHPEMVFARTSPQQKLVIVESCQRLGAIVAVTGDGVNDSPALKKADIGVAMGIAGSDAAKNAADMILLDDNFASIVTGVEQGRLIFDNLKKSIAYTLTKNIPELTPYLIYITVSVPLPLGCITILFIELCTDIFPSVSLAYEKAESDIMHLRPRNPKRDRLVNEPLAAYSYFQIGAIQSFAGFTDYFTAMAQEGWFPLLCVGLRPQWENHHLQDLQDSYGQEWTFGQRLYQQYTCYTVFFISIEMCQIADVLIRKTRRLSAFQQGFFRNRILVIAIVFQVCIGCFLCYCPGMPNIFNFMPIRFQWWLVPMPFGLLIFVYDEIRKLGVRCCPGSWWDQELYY
T1 sequence (P18434 whole entry partner): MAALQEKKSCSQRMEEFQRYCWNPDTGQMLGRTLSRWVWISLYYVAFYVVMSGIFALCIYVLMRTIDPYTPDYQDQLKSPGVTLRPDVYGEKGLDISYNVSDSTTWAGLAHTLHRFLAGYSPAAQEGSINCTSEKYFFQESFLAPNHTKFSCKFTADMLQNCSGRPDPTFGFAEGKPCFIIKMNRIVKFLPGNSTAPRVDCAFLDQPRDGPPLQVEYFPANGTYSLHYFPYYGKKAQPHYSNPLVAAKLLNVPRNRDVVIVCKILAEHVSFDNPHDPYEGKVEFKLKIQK

`CNCc1cn(S(=O)(=O)c2cccc(OC(F)F)c2)c2cc(Nc3ccc(Cl)cc3F)ccc12` [Example 176, N-(4-chloro-2-fluorophenyl)-1-((3-(difluoromethoxy)phenyl)sulfonyl)-3-((methylamino)methyl)-1H-indol-6-amine hydrochloride]: the IC50 worked out at 370 nM. This counts as sub-micromolar. Under `CNCc1cn(S(=O)(=O)c2cccc(OC(F)F)c2)c2cc(Nc3ccc(Cl)cc3C(F)(F)F)ccc12` [Example 177, N-(4-chloro-2-(trifluoromethyl)phenyl)-1-((3-(difluoromethoxy)phenyl)sulfonyl)-3-((methylamino)methyl)-1H-indol-6-amine hydrochloride] stands 1410 nM. The same measure for `CNCc1cn(S(=O)(=O)c2cccc(OC(F)F)c2)c2cc(Nc3ccc(OC)cc3F)ccc12` [Example 178, 1-((3-(difluoromethoxy)phenyl)sulfonyl)-N-(2-fluoro-4-methoxyphenyl)-3-((methylamino)methyl)-1H-indol-6-amine hydrochloride]: 610 nM; for `CNCc1cn(S(=O)(=O)c2cccc(OC(F)F)c2)c2cc(Nc3ccc(OC(F)(F)F)cc3C)ccc12` [Example 179, 1-((3-(difluoromethoxy)phenyl)sulfonyl)-N-(2-methyl-4-(trifluoromethoxy)phenyl)-3-((methylamino)methyl)-1H-indol-6-amine hydrochloride]: 330 nM. As to `CNCc1cn(S(=O)(=O)c2cccc(OC(F)F)c2)c2cc(Nc3ccc(C)c(F)c3F)ccc12` [Example 180, N-(2,3-difluoro-4-methylphenyl)-1-((3-(difluoromethoxy)phenyl)sulfonyl)-3-((methylamino)methyl)-1H-indol-6-amine hydrochloride], the half-maximal inhibitory concentration (IC50) worked out at 270 nM.

As for `CNCc1cn(S(=O)(=O)c2cccc(OC(F)F)c2)c2cc(Nc3ccc(C)nc3F)ccc12` [Example 181, 1-((3-(difluoromethoxy)phenyl)sulfonyl)-N-(2-fluoro-6-methylpyridin-3-yl)-3-((methylamino)methyl)-1H-indol-6-amine hydrochloride], the IC50 was 1280 nM. The same measure for `CNCc1cn(S(=O)(=O)c2cccc(C(F)(F)F)c2)c2cc(Nc3ccc(C)cc3F)ccc12` [Example 183, N-(2-fluoro-4-methylphenyl)-3-((methylamino)methyl)-1-((3-(trifluoromethyl)phenyl)sulfonyl)-1H-indol-6-amine hydrochloride]: 590 nM; for `CNCc1cn(S(=O)(=O)c2cccc(C(F)(F)F)c2)c2cc(Nc3ccc(C)cc3Cl)ccc12` [Example 184, N-(2-chloro-4-methylphenyl)-3-((methylamino)methyl)-1-((3-(trifluoromethyl)phenyl)sulfonyl)-1H-indol-6-amine hydrochloride]: 360 nM; for `CNCc1cn(S(=O)(=O)c2cccc(C(F)(F)F)c2)c2cc(Nc3ccc(Cl)cc3F)ccc12` [Example 185, N-(4-chloro-2-fluorophenyl)-3-((methylamino)methyl)-1-((3-(trifluoromethyl)phenyl)sulfonyl)-1H-indol-6-amine hydrochloride]: 1000 nM.

`CNCc1cn(S(=O)(=O)c2cccc(C(F)(F)F)c2)c2cc(Nc3ccc(Cl)cc3C(F)(F)F)ccc12` [Example 186, N-(4-chloro-2-(trifluoromethyl)phenyl)-3-((methylamino)methyl)-1-((3-(trifluoromethyl)phenyl)sulfonyl)-1H-indol-6-amine hydrochloride] returned an IC50 of 410 nM. Under `CNCc1cn(S(=O)(=O)c2cccc(C(F)(F)F)c2)c2cc(Nc3ccc(C(F)(F)F)cc3Cl)ccc12` [Example 187, N-(2-chloro-4-(trifluoromethyl)phenyl)-3-((methylamino)methyl)-1-((3-(trifluoromethyl)phenyl)sulfonyl)-1H-indol-6-amine hydrochloride] stands 980 nM; under `CNCc1cn(S(=O)(=O)c2cccc(C(F)(F)F)c2)c2cc(Nc3ccc(OC)cc3F)ccc12` [Example 188, N-(2-fluoro-4-methoxyphenyl)-3-((methylamino)methyl)-1-((3-(trifluoromethyl)phenyl)sulfonyl)-1H-indol-6-amine hydrochloride], 400 nM. `CNCc1cn(S(=O)(=O)c2cccc(C(F)(F)F)c2)c2cc(Nc3ccc(OC(F)(F)F)cc3C)ccc12` [Example 189, N-(2-methyl-4-(trifluoromethoxy)phenyl)-3-((methylamino)methyl)-1-((3-(trifluoromethyl)phenyl)sulfonyl)-1H-indol-6-amine hydrochloride] yielded an IC50 of 650 nM. The same measure for `CNCc1cn(S(=O)(=O)c2cccc(C(F)(F)F)c2)c2cc(Nc3ccc(OC(F)(F)F)cc3OC)ccc12` [Example 190, N-(2-methoxy-4-(trifluoromethoxy)phenyl)-3-((methylamino)methyl)-1-((3-(trifluoromethyl)phenyl)sulfonyl)-1H-indol-6-amine hydrochloride]: 440 nM; for `CNCc1cn(S(=O)(=O)c2cccc(C(F)(F)F)c2)c2cc(Nc3ccc(C)c(F)c3F)ccc12` [Example 191, N-(2,3-difluoro-4-methylphenyl)-3-((methylamino)methyl)-1-((3-(trifluoromethyl)phenyl)sulfonyl)-1H-indol-6-amine hydrochloride]: 70 nM; for `CNCc1cn(S(=O)(=O)c2cccc(C(F)(F)F)c2)c2cc(Nc3ccc(C)nc3Cl)ccc12` [Example 192, N-(2-chloro-6-methylpyridin-3-yl)-3-((methylamino)methyl)-1-((3-(trifluoromethyl)phenyl)sulfonyl)-1H-indol-6-amine hydrochloride]: 60 nM.

For the molecule `CNCc1cn(S(=O)(=O)c2cccc(C(F)(F)F)c2)c2cc(Nc3ccc(Cl)nc3Cl)ccc12` [Example 193, N-(2,6-dichloropyridin-3-yl)-3-((methylamino)methyl)-1-((3-(trifluoromethyl)phenyl)sulfonyl)-1H-indol-6-amine hydrochloride], the IC50 worked out at 580 nM. Compared with the last molecule, the IC50 is about 9.7-fold higher. As for `CNCc1cn(S(=O)(=O)c2cccc(C(F)(F)F)c2)c2cc(Nc3ccc(C(F)(F)F)nc3Cl)ccc12` [Example 195, N-(2-chloro-6-(trifluoromethyl)pyridin-3-yl)-3-((methylamino)methyl)-1-((3-(trifluoromethyl)phenyl)sulfonyl)-1H-indol-6-amine hydrochloride], it took 1270 nM to reach half-maximal inhibition (IC50). Under `CNCc1cn(S(=O)(=O)c2cccc(OC(F)(F)F)c2)c2cc(Nc3ccc(C)cc3Cl)ccc12` [Example 196, N-(2-chloro-4-methylphenyl)-3-((methylamino)methyl)-1-((3-(trifluoromethoxy)phenyl)sulfonyl)-1H-indol-6-amine hydrochloride] stands 390 nM; under `CNCc1cn(S(=O)(=O)c2cccc(OC(F)(F)F)c2)c2cc(Nc3ccc(Cl)cc3F)ccc12` [Example 197, N-(4-chloro-2-fluorophenyl)-3-((methylamino)methyl)-1-((3-(trifluoromethoxy)phenyl)sulfonyl)-1H-indol-6-amine hydrochloride], 850 nM; under `CNCc1cn(S(=O)(=O)c2cccc(OC(F)(F)F)c2)c2cc(Nc3ccc(C(F)(F)F)cc3Cl)ccc12` [Example 198, N-(2-chloro-4-(trifluoromethyl)phenyl)-3-((methylamino)methyl)-1-((3-(trifluoromethoxy)phenyl)sulfonyl)-1H-indol-6-amine hydrochloride], 160 nM.

The IC50 is the concentration that gives 50% inhibition. A high value points to a need for much substance.
